# Measurements: US4988687A, “Cephalosporin derivatives, and antibacterial agents” (priority 1986, dated 1991)
# Legend:
# K. pneumoniae No. 42 = experiment: agar plate dilution method, MIC against K. pneumoniae No. 42; format: cell-based; details: Klebsiella pneumoniae; K. pneumoniae No. 42 (lactamase-producing strain); 10^6 CFU/ml, 37° C., 16 hours; read-out: Minimum Inhibitory Concentration (MIC)
# Protocol: (§1) The in vitro antibacterial activities of the compounds of the present invention against various microorganisms, were measured by the following agar plate dilution method. One platinum loopfull of each test microorganism incubated overnight in Mueller Hinton broth, was inoculated to Mueller Hinton agar (inoculum size: 10^6 CFU/ml) Such culture media containing various antibiotics in various concentrations were prepared After incubation at 37° C. for 16 hours, the minimum inhibitory concentrations (MIC: μg/ml) were measured. As comparative compounds, cefotaxime, oeftazidime and the compounds disclosed in Example 2 of Japanese Unexamined Patent Publication No. 215690/1985 e.g. sodium 7-[2-(2-aminothiazol-4-yl)-2-ethoxyiminoacetamido]-3-(1-carboxylatemethylpyridinio-4-yl)thiomethyl-3-cephem-4-carboxylate (hereinafter referred to simply as "Reference Example A") were employed.
# Ps. maltophilia GN 12873 = experiment: agar plate dilution method, MIC against Ps. maltophilia GN 12873; format: cell-based, Pseudomonas maltophilia; details: Stenotrophomonas maltophilia, GN12873; Ps. maltophilia GN 12873 (lactamase-producing strain); 10^6 CFU/ml, 37° C., 16 hours; read-out: Minimum Inhibitory Concentration (MIC)
# Protocol: as §1
# S. aureus 209P NIHJ-JC1 = experiment: agar plate dilution method, MIC against S. aureus 209P NIHJ-JC1; format: cell-based; details: Staphylococcus aureus, 16 h, read-out: Minimum Inhibitory Concentration (MIC)
# Protocol: as §1
# E. coli CSH2 (RK1) = experiment: agar plate dilution method, MIC against E. coli CSH2 (RK1); format: cell-based; details: Escherichia coli, 16 h, read-out: Minimum Inhibitory Concentration (MIC)
# Protocol: as §1
# M. luteus ATCC9341 = experiment: agar plate dilution method, MIC against M. luteus ATCC9341; format: cell-based; details: Micrococcus luteus; M. luteus ATCC9341; 10^6 CFU/ml, 37° C., 16 hours; read-out: Minimum Inhibitory Concentration (MIC)
# Protocol: as §1
# S. aureus JS1 = experiment: agar plate dilution method, MIC against S. aureus JS1; format: cell-based; details: Staphylococcus aureus; S. aureus JS1 (methicilline resistant; lactamase-producing strain); 10^6 CFU/ml, 37° C., 16 hours; read-out: Minimum Inhibitory Concentration (MIC)
# Protocol: as §1
# C. freundii GN346 = experiment: agar plate dilution method, MIC against C. freundii GN346; format: cell-based; details: Citrobacter freundii; C. freundii GN346 (lactamase-producing strain); 10^6 CFU/ml, 37° C., 16 hours; read-out: Minimum Inhibitory Concentration (MIC)
# Protocol: as §1
# E. cloacae 963 = experiment: agar plate dilution method, MIC against E. cloacae 963; format: cell-based; details: Enterobacter cloacae; E. cloacae 963; 10^6 CFU/ml, 37° C., 16 hours; read-out: Minimum Inhibitory Concentration (MIC)
# Protocol: as §1
# P. vulgaris HX-19 = experiment: agar plate dilution method, MIC against P. vulgaris HX-19; format: cell-based; details: Proteus vulgaris, HX19, 16 h, read-out: Minimum Inhibitory Concentration (MIC)
# Protocol: as §1
# K. oxytoca GN10650 = experiment: agar plate dilution method, MIC against K. oxytoca GN10650; format: cell-based; details: Klebsiella oxytoca; K. oxytoca GN10650 (lactamase-producing strain); 10^6 CFU/ml, 37° C., 16 hours; read-out: Minimum Inhibitory Concentration (MIC)
# Protocol: as §1
# K. pneumoniae PCI-602 = experiment: agar plate dilution method, MIC against K. pneumoniae PCI-602; format: cell-based; details: Klebsiella pneumoniae, PCI602, 16 h, read-out: Minimum Inhibitory Concentration (MIC)
# Protocol: as §1
# S. marcescens No. 16-2 = experiment: agar plate dilution method, MIC against S. marcescens No. 16-2; format: cell-based; details: Serratia marcescens, NO.162, 16 h, read-out: Minimum Inhibitory Concentration (MIC)
# Protocol: as §1
# Ps. aeruginosa AK 109 = experiment: agar plate dilution method, MIC against Ps. aeruginosa AK 109; format: cell-based; details: Pseudomonas aeruginosa, AK109, 16 h, read-out: Minimum Inhibitory Concentration (MIC)
# Protocol: as §1
# S. marcescens IAM 1184 = experiment: agar plate dilution method, MIC against S. marcescens IAM 1184; format: cell-based; details: Serratia marcescens, IAM1184; S. marcescens IAM 1184; 10^6 CFU/ml, 37° C., 16 hours; read-out: Minimum Inhibitory Concentration (MIC)
# Protocol: as §1
# A. calcoaceticus No. 4 = experiment: agar plate dilution method, MIC against A. calcoaceticus No. 4; format: cell-based; details: Acinetobacter calcoaceticus; A. calcoaceticus No. 4; 10^6 CFU/ml, 37° C., 16 hours; read-out: Minimum Inhibitory Concentration (MIC)
# Protocol: as §1
# E. cloacae Nek 39 = experiment: agar plate dilution method, MIC against E. cloacae Nek 39; format: cell-based; details: Enterobacter cloacae, NEK39; E. cloacae Nek 39 (lactamase-producing strain); 10^6 CFU/ml, 37° C., 16 hours; read-out: Minimum Inhibitory Concentration (MIC)
# Protocol: as §1
# P. vulgaris No. 33 = experiment: agar plate dilution method, MIC against P. vulgaris No. 33; format: cell-based; details: Proteus vulgaris; P. vulgaris No. 33 (lactamase-producing strain); 10^6 CFU/ml, 37° C., 16 hours; read-out: Minimum Inhibitory Concentration (MIC)
# Protocol: as §1
# Ps. cepacia 23 = experiment: agar plate dilution method, MIC against Ps. cepacia 23; format: cell-based, Pseudomonas cepacia; details: Burkholderia cepacia, 23, 16 h, read-out: Minimum Inhibitory Concentration (MIC)
# Protocol: as §1
# M. morganii GN5407 = experiment: agar plate dilution method, MIC against M. morganii GN5407; format: cell-based; details: Morganella morganii; M. morganii GN5407 (lactamase-producing strain); 10^6 CFU/ml, 37° C., 16 hours; read-out: Minimum Inhibitory Concentration (MIC)
# Protocol: as §1
# E. coli CSH(RE45) = experiment: agar plate dilution method, MIC against E. coli CSH(RE45); format: cell-based; details: Escherichia coli, 16 h, read-out: Minimum Inhibitory Concentration (MIC)
# Protocol: as §1
# Ps. aeruginosa AKR17 = experiment: agar plate dilution method, MIC against Ps. aeruginosa AKR17; format: cell-based; details: Pseudomonas aeruginosa; Ps. aeruginosa AKR17; 10^6 CFU/ml, 37° C., 16 hours; read-out: Minimum Inhibitory Concentration (MIC)
# Protocol: as §1
# C. freundii GN346/16 = experiment: agar plate dilution method, MIC against C. freundii GN346/16; format: cell-based; details: Citrobacter freundii; C. freundii GN346/16; 10^6 CFU/ml, 37° C., 16 hours; read-out: Minimum Inhibitory Concentration (MIC)
# Protocol: as §1
# S. epidermidis IAM12012 = experiment: agar plate dilution method, MIC against S. epidermidis IAM12012; format: cell-based; details: Staphylococcus epidermidis, IAM12012, 16 h, read-out: Minimum Inhibitory Concentration (MIC)
# Protocol: as §1
# E. coli GN5482 = experiment: agar plate dilution method, MIC against E. coli GN5482; format: cell-based; details: Escherichia coli; E. coli GN5482 (lactamase-producing strain); 10^6 CFU/ml, 37° C., 16 hours; read-out: Minimum Inhibitory Concentration (MIC)
# Protocol: as §1
# E. coli NIHJ JC2 = experiment: agar plate dilution method, MIC against E. coli NIHJ JC2; format: cell-based; details: Escherichia coli, NIHJJC2; E. coli NIHJ JC2; 10^6 CFU/ml, 37° C., 16 hours; read-out: Minimum Inhibitory Concentration (MIC)
# Protocol: as §1
# S. aureus BB5703 = experiment: agar plate dilution method, MIC against S. aureus BB5703; format: cell-based; details: Staphylococcus aureus, BB5703, 16 h, read-out: Minimum Inhibitory Concentration (MIC)
# Protocol: as §1
# Ps. aeruginosa IFO3445 = experiment: agar plate dilution method, MIC against Ps. aeruginosa IFO3445; format: cell-based; details: Pseudomonas aeruginosa, IFO3445, 16 h, read-out: Minimum Inhibitory Concentration (MIC)
# Protocol: as §1
structure (smiles),measurement,setting,value
"CO/N=C(\C(=O)N[C@@H]1C(=O)N2C(C(=O)O)=C(COC(C)=O)CS[C@H]12)c1csc(N)n1 [Cefotaxime, cefotaxime, reference compound]",MIC,K. pneumoniae No. 42,0.05 µg/mL
same,MIC,Ps. maltophilia GN 12873,> 100 µg/mL
same,MIC,S. aureus 209P NIHJ-JC1,1.56 µg/mL
same,MIC,E. coli CSH2 (RK1),0.025 µg/mL
same,MIC,M. luteus ATCC9341,0.1 µg/mL
same,MIC,S. aureus JS1,25 µg/mL
same,MIC,C. freundii GN346,12.5 µg/mL
same,MIC,E. cloacae 963,0.1 µg/mL
same,MIC,P. vulgaris HX-19,< 0.006 µg/mL
same,MIC,K. oxytoca GN10650,0.39 µg/mL
same,MIC,K. pneumoniae PCI-602,< 0.006 µg/mL
same,MIC,S. marcescens No. 16-2,12.5 µg/mL
same,MIC,Ps. aeruginosa AK 109,12.5 µg/mL
same,MIC,S. marcescens IAM 1184,0.1 µg/mL
same,MIC,A. calcoaceticus No. 4,25 µg/mL
same,MIC,E. cloacae Nek 39,3.12 µg/mL
same,MIC,P. vulgaris No. 33,0.025 µg/mL
same,MIC,Ps. cepacia 23,6.25 µg/mL
same,MIC,M. morganii GN5407,0.1 µg/mL
same,MIC,E. coli CSH(RE45),0.1 µg/mL
same,MIC,Ps. aeruginosa AKR17,> 100 µg/mL
same,MIC,C. freundii GN346/16,0.1 µg/mL
same,MIC,S. epidermidis IAM12012,1.56 µg/mL
same,MIC,E. coli GN5482,0.39 µg/mL
same,MIC,E. coli NIHJ JC2,0.05 µg/mL
same,MIC,S. aureus BB5703,3.12 µg/mL
same,MIC,Ps. aeruginosa IFO3445,12.5 µg/mL
